Reference: US20250136555A1 (HARBIN MEDISAN PHARMACEUTICAL CO., LTD., priority 2022, published 2025)
“Also recorded” adds a separate entry of the source.

How the values were obtained:
[1] = system: non-PPAR nuclear receptors; experiment: GAL4 hybrid reporter gene method, non-PPAR nuclear receptors (summary statement); format: cell-based; details: 1 μM
Experimental: Reporter gene plasmids for different nuclear receptors were constructed by referring to the method in the literature (Journal of Medicinal Chemistry 2022, 65, 2571-2592). Transfection working solutions for different nuclear receptors were prepared and added into COS-7 cells. The preparation method for the transfection working solution was as follows: the constructed pBIND-Gal4-PPARα (LBD) (or pBIND-Gal4-PPARδ (LBD) plasmid or pBIND-Gal4-PPARγ (LBD) plasmid or pBIND-Gal4-RARα (LBD) plasmid or pBIND-Gal4-RARγ (LBD) plasmid or pBIND-Gal4-RARβ (LBD) plasmid or pBIND-Gal4-RORα (LBD) plasmid or pBIND-Gal4-RORγ (LBD) plasmid or pBIND-Gal4-RORβ (LBD) plasmid or pBIND-Gal4-FXR (LBD) plasmid or pBIND-Gal4-RXRα. (LBD) plasmid or pBIND-Gal4-RXRγ (LBD) plasmid or pBIND-Gal4-RXRβ (LBD) plasmid or pBIND-Gal4-VDR (LBD) plasmid or pBIND-Gal4-LXRα (LBD) plasmid or pBIND-Gal4-LXRβ (LBD) plasmid or pBIND-Gal4-[…] (LBD) plasmid or pBIND-Gal4-PXR (LBD) plasmid or pBIND-Gal4-CAR (LBD) plasmid), 15 μg of pGL4.35-9×Gal4 UAS plasmid (purchased from Promega (Beijing) Biotech Co., Ltd.), and 60 μL of a transfection reagent ([…], purchased from Wuhan ABclonal Biotechnology Co., Ltd.) were added to 2 mL of Opti-MEM, the mixture was left to stand at room temperature for 15 min, and then the working solution was obtained.

NASH model mice = experiment: NASH induced by HF-CDAA diet in mice; format: in vivo, C57 mice
PPARα = biological target: T1, PPARα (Homo sapiens, UniProt Q07869); experiment: GAL4 hybrid reporter gene method, PPARα agonistic activity; format: cell-based; details: Cos-7 cells, Gal4-PPARα (LBD); GW7647 10 nM = 100%; 16 h
T1 construct: expressed in transfected cells; host or cells: COS-7
T1 sequence (Q07869 239-466 limits assumed): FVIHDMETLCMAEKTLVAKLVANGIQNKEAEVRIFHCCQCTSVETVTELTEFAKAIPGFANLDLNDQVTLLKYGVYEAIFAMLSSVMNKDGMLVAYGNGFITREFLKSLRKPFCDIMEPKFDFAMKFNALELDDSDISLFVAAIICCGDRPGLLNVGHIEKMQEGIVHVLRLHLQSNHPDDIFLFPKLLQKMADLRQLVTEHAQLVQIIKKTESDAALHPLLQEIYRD
Experimental: (§1) Cos-7 cells (African green monkey kidney fibroblasts, commonly used tool cells) were cultured in a 10-cm cell culture dish with a DMEM complete medium containing 10% fetal bovine serum. When growing at a density of about 70%, the cells were ready for transfection. […] The working solution described above was then combined with 8 mL of the DMEM complete medium, and the mixture was added to the cell culture dish for cell transfection. After 4 h of transfection, the cells were digested, resuspended, and seeded into a 96-well plate at 25,000 cells/well. […] 10 μL of a reporter gene detection solution (purchased from Shanghai Beyotime Biological Tech. Co., Ltd.) was added. After the resulting solution was mixed and reacted, biological fluorescence was detected by using a multifunctional microplate reader, and corresponding half maximal effective concentration (EC50) values were calculated according to the detection values. […] Transfection working solutions for different nuclear receptors were prepared and added into COS-7 cells. The preparation method for the transfection working solution was as follows: the constructed pBIND-Gal4-PPARα (LBD) (or pBIND-Gal4-PPARδ (LBD) plasmid or pBIND-Gal4-PPARγ (LBD) plasmid or pBIND-Gal4-RARα (LBD) plasmid or pBIND-Gal4-RARγ (LBD) plasmid or pBIND-Gal4-RARβ (LBD) plasmid or pBIND-Gal4-RORα (LBD) plasmid or pBIND-Gal4-RORγ (LBD) plasmid or pBIND-Gal4-RORβ (LBD) plasmid or pBIND-Gal4-FXR (LBD) plasmid or pBIND-Gal4-RXRα.

[2] = system: ANIT-induced cholestasis in mice; experiment: α-Naphthylisothiocyanate (ANIT)-induced cholestasis in mice; format: in vivo, C57 mice
Experimental: Animals: 25 male C57 mice, SPF grade, 8 weeks old, weighing about 20 g, purchased from Beijing Vital River. All animals maintained a 12-hour alternating circadian rhythm and were given ad libitum access to food and water. […] The mice were all fed food and water normally. The molding and administration processes were as follows: the mice in each of the administration groups were intragastrically administered the corresponding doses and types of compounds 6 h before modeling, and the mice in the control group and the model group were administered solvent controls with the same volume. When modeling, except for the control group, the mice in each group were intragastrically administered ANIT at a dose of 80 mg/kg, and the mice in the control group were administered the solvent control with the same volume. The administration was then continued for two days, once per day. Each group of mice was weighed every day, and their body weight, hair, feces, and activities were carefully observed and recorded. Forty-eight hours after giving ANIT for molding, blood was collected from the orbit, the mice were euthanized, and the liver was collected. The right lobular tissue of the liver was fixed with 4% paraformaldehyde and used for sectioning followed by HE staining. The remaining liver tissues were snap-frozen in liquid nitrogen for subsequent assays of other indexes. The whole blood was left to stand at room temperature for 2 h and centrifuged at 3000 rpm for 15 min, and serum was collected. Levels of aspartate aminotransferase (AST), alanine aminotransferase (ALT), alkaline phosphatase (ALP), total bilirubin (TBil), and total bile acid (TBA) in the serum were assayed. The fixed tissue was sent to Wuhan Servicebio Technology Co., Ltd. for preparing HE-stained sections. The test was performed using a tissue and blood alkaline phosphatase (AKP/ALP) activity assay kit (BC2145) purchased from Beijing Solarbio Science & Technology Co., Ltd. The liver tissue stored at −80° C. was taken and placed in liquid nitrogen, about 0.1 g of liver tissue was rapidly cut off, and 1 mL of an extracting solution was added. The mixture was ground thoroughly and centrifuged at 4° C. and 10000 rpm for 10 min, and the supernatant was collected for assay. The assay was performed by referring to the method in the product's instruction. Data were corrected according to protein concentrations of the samples, and the catalytic production of 1 μmol phenol per minute per milligram protein at 37° C. was defined as one enzymatic activity unit.

PPARγ = biological target: T2, PPARγ (Homo sapiens, UniProt P37231); experiment: GAL4 hybrid reporter gene method, PPARγ agonistic activity; format: cell-based; details: Cos-7 cells, Gal4-PPARγ (LBD); Rosiglitazone 1 μM = 100%; 16 h
T2 construct: expressed in transfected cells; host or cells: COS-7
T2 sequence (P37231 238-503 limits assumed): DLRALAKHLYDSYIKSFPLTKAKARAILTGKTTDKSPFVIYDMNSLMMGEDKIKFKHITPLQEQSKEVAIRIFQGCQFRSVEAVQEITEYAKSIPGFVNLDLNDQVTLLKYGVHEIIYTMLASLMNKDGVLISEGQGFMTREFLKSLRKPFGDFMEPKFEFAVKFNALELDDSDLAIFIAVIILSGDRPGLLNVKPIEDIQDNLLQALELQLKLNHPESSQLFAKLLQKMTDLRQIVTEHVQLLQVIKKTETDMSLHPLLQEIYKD
Experimental: as §1

[3] = NASH model mice, 0.1 mg/kg intragastric daily, 2 weeks
[4] = compound 1 0.1 mg/kg vs GFT505 10 mg/kg

agonistic effect on non-PPAR nuclear receptors [1]: no significant agonistic effect
EC50 (PPARα): 0.7 nM
EC50 (PPARγ): 1660 nM
SMILES: Cc1cc(CN2C(=O)CN(c3ccc(C(F)(F)F)cc3)C2=O)cc(C)c1OC(C)(C)C(=O)O [Compound 1, 2-(4-((2,5-Dioxo-3-(4-(trifluoromethyl)phenyl)imidazolidin-1-yl)methyl)-2,6-dimethylphenoxy)-2-methylpropionic Acid]
pathological state of NASH mice (conclusion) (NASH model mice; 0.1 mg/kg): significantly improve the pathological state
collagen deposition in liver, sirius red staining (FIG. 8) (NASH model mice; NASH model mice, 0.1 mg/kg): reduce collagen deposition
inflammatory infiltration in hepatic lobules, HE staining (FIG. 7) (NASH model mice; NASH model mice, 0.1 mg/kg): reduce inflammatory infiltration
lipid droplets in liver, oil red staining (FIG. 9) (NASH model mice; NASH model mice, 0.1 mg/kg): reduce the number and area of lipid droplets
liver mRNA expression level of Acta2 (FIG. 12) (NASH model mice; NASH model mice, 0.1 mg/kg): inhibit the increase
liver mRNA expression level of Ccl2 (FIG. 11) (NASH model mice; NASH model mice, 0.1 mg/kg): inhibit the increase
liver mRNA expression level of Ccl5 (FIG. 11) (NASH model mice; NASH model mice, 0.1 mg/kg): inhibit the increase
liver mRNA expression level of Cd11b (FIG. 11) (NASH model mice; NASH model mice, 0.1 mg/kg): inhibit the increase
liver mRNA expression level of Col1a1 (FIG. 12) (NASH model mice; NASH model mice, 0.1 mg/kg): inhibit the increase
liver mRNA expression level of Col3a1 (FIG. 12) (NASH model mice; NASH model mice, 0.1 mg/kg): inhibit the increase
liver mRNA expression level of Tgfb1 (FIG. 12) (NASH model mice; NASH model mice, 0.1 mg/kg): inhibit the increase
liver mRNA expression level of Tnf (FIG. 11) (NASH model mice; NASH model mice, 0.1 mg/kg): inhibit the increase
triglyceride content in the liver (FIG. 10) (NASH model mice; NASH model mice, 0.1 mg/kg): reduce triglyceride accumulation
serum ALT level (FIG. 6) (NASH model mice; [3]): down-regulated
serum AST level (FIG. 6) (NASH model mice; [3]): down-regulated
effect on reducing hepatic enzymes versus GFT505 (NASH model mice; [4]): slightly better effect on reducing the levels of hepatic enzymes than that of GFT505 at 10 mg/kg
effect on reducing hepatic triglycerides versus GFT505 (NASH model mice; [4]): superior to that of GFT505 at 10 mg/kg
effect on reducing lipid accumulation versus GFT505 (NASH model mice; [4]): superior to that of GFT505 at 10 mg/kg
therapeutic effect in NASH mice versus GFT505 (NASH model mice; [4]): equivalent therapeutic effect to that of GFT505 at a dose of 10 mg/kg
PPARα EC50 (nM) (PPARα): picomolar levels; also recorded: low nanomolar levels
intrahepatic cholestasis: liver morphology and serum color (FIG. 2) ([2]; ANIT 80 mg/kg, 0.03 and 0.1 mg/kg intragastric): effectively improve intrahepatic cholestasis
therapeutic effect on mouse cholestatic model (conclusion) ([2]; ANIT model): potent therapeutic effect
level of intrahepatic ALP (FIG. 4) ([2]; ANIT model, 0.03 and 0.1 mg/kg): significantly down-regulate
necrotic areas in the liver, HE staining (FIG. 5) ([2]; ANIT model, 0.03 and 0.1 mg/kg): dose-dependently reduce the number and area of necrotic areas
serum ALP (FIG. 3) ([2]; ANIT model, 0.03 and 0.1 mg/kg): a certain tendency to reduce
serum ALT level (FIG. 3) ([2]; ANIT model, 0.03 and 0.1 mg/kg): dose-dependently and significantly down-regulate
serum AST level (FIG. 3) ([2]; ANIT model, 0.03 and 0.1 mg/kg): dose-dependently and significantly down-regulate
serum TBA level (FIG. 3) ([2]; ANIT model, 0.03 and 0.1 mg/kg): dose-dependently and significantly down-regulate
serum TBil level (FIG. 3) ([2]; ANIT model, 0.03 and 0.1 mg/kg): dose-dependently and significantly down-regulate
ability to improve general appearance of the liver and serum color versus GFT505 ([2]; compound 1 0.03 mg/kg vs GFT505 30 mg/kg): comparable to the effect of GFT505 at 30 mg/kg
effects on reducing hepatic enzymes, total bilirubin and total bile acid versus GFT505 ([2]; compound 1 0.1 mg/kg vs GFT505 30 mg/kg): comparable to that of GFT505 at 30 mg/kg
effect on reducing intrahepatic ALP versus GFT505 ([2]; compound 1 at the two doses vs GFT505 30 mg/kg): slightly superior to that of GFT505 at 30 mg/kg
